Data taken from ChEMBL document CHEMBL5233263 (Eur J Med Chem, 2021).

Columns and labels:
D(2) dopamine receptor [1] = molecular target: T1, D(2) dopamine receptor (Homo sapiens, UniProt P14416); test: Binding affinity to human D2R assessed as inhibition constant
D(3) dopamine receptor [2] = molecular target: T2, D(3) dopamine receptor (Homo sapiens, UniProt P35462); test: Binding affinity to human D3R assessed as inhibition constant
D(4) dopamine receptor [3] = molecular target: T3, D(4) dopamine receptor (Homo sapiens, UniProt P21917); test: Displacement of [3H]-spiperone from human D4 receptor expressed in CHO cells assessed as inhibition constant; type: cell-based
T3 sequence (P21917 whole entry): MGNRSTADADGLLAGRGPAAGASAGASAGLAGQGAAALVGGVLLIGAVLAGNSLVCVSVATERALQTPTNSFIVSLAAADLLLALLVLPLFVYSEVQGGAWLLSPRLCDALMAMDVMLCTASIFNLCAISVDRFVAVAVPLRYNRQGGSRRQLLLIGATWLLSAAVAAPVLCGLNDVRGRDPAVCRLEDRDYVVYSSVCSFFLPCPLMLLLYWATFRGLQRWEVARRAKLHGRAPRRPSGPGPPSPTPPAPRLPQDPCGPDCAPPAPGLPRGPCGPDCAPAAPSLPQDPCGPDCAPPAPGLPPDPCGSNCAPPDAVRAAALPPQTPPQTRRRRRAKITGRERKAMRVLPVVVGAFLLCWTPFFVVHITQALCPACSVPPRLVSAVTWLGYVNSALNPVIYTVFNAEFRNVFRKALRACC

D(2) dopamine receptor [4] = molecular target: T1, D(2) dopamine receptor; test: Binding affinity to D2R (unknown origin) assessed as inhibition constant
D(3) dopamine receptor [5] = molecular target: T2, D(3) dopamine receptor; test: Binding affinity to D3R (unknown origin) assessed as inhibition constant
D(4) dopamine receptor [6] = molecular target: T3, D(4) dopamine receptor; test: Binding affinity to D4R (unknown origin) assessed as inhibition constant
D(2) dopamine receptor [7] = molecular target: T1, D(2) dopamine receptor; test: Displacement of [3H]-spiperone from human D2 receptor assessed as inhibition constant
D(3) dopamine receptor [8] = molecular target: T2, D(3) dopamine receptor; test: Displacement of [3H]-spiperone from human D3 receptor assessed as inhibition constant
D(4) dopamine receptor [9] = molecular target: T3, D(4) dopamine receptor; test: Displacement of [3H]-spiperone from human D4 receptor expressed in CHO-K1 cells assessed as inhibition constant measured after 60 mins; type: cell-based
[10] = molecular target: T4, D(4) dopamine receptor (Homo sapiens) (UniProt P21917); test: Binding affinity to human D4R at 1 uM relative to control
T4 sequence (whole entry): T3 sequence (P21917 whole entry)

D(4) dopamine receptor [11] = molecular target: T3, D(4) dopamine receptor; test: Binding affinity to human D4R assessed as inhibition constant
D(4) dopamine receptor [12] = molecular target: T3, D(4) dopamine receptor; test: (§1) Displacement of [3H]-nemonapride from human D4 receptor expressed in CHO cells assessed as inhibition constant; type: cell-based
D(4) dopamine receptor [13] = molecular target: T3, D(4) dopamine receptor; test: Agonist activity at D4R (unknown origin) by camp reporter assay
D(2) dopamine receptor [14] = molecular target: T1, D(2) dopamine receptor; test: Displacement of [3H]-spiperone from human D2 receptor expressed in Sf9 cells assessed as inhibition constant
D(4) dopamine receptor [15] = molecular target: T3, D(4) dopamine receptor; test: Displacement of [3H]-spiperone from human D4 receptor expressed in HEK293 cells assessed as inhibition constant; type: cell-based
[16] = molecular target: T4, D(4) dopamine receptor (Homo sapiens); test: as §1; type: cell-based
D(2) dopamine receptor [17] = molecular target: T1, D(2) dopamine receptor; test: Binding affinity to human D2R assessed as inhibition constant by Cheng-Prusoff equation analysis
D(3) dopamine receptor [18] = molecular target: T2, D(3) dopamine receptor; test: Displacement of [3H]-spiperone from human D3 receptor expressed in CHO cells assessed as inhibition constant; type: cell-based
D(4) dopamine receptor [19] = molecular target: T3, D(4) dopamine receptor; test: Agonist activity at human D4R assessed as [35S] GTPgammaS binding
[20] = molecular target: T4, D(4) dopamine receptor (Homo sapiens); test: Agonist activity at human D4R assessed as [35S] GTPgammaS binding relative to control; conditions: filed as agonist
D(4) dopamine receptor [21] = molecular target: T3, D(4) dopamine receptor; test: Displacement of [3H]-methylspiperone from D4 (unknown origin) receptor expressed in HEK293T cells assessed as inhibition constant; type: cell-based
D(4) dopamine receptor [22] = molecular target: T3, D(4) dopamine receptor; test: Agonist activity at human D4R
[23] = molecular target: T4, D(4) dopamine receptor (Homo sapiens); test: Agonist activity at human D4R at 10 uM relative to control
D(4) dopamine receptor [24] = molecular target: T3, D(4) dopamine receptor; test: Agonist activity at D4R (unknown origin)
D(2) dopamine receptor [25] = molecular target: T1, D(2) dopamine receptor; test: Agonist activity at human D2R expressed in HEK293 cells incubated for 3 mins by FLIPR analysis; type: cell-based
[26] = molecular target: 5-hydroxytryptamine receptor 2A (Homo sapiens, UniProt P28223); test: Binding affinity to 5HT2A receptor (unknown origin) assessed as inhibition constant
Chain of 5-hydroxytryptamine receptor 2A (P28223 whole entry): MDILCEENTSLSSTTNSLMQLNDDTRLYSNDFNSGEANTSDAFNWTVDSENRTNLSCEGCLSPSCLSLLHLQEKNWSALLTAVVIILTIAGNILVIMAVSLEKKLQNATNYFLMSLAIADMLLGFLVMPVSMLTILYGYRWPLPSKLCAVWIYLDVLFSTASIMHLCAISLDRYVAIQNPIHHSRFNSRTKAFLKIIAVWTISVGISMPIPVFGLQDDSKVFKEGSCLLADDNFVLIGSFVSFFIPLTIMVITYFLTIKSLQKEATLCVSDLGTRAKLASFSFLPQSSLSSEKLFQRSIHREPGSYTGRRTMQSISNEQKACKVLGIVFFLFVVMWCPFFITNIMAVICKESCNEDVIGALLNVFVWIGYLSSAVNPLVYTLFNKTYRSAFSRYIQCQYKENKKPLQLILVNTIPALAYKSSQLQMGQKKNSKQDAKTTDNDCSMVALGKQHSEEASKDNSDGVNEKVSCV

T1 sequence (P14416 whole entry): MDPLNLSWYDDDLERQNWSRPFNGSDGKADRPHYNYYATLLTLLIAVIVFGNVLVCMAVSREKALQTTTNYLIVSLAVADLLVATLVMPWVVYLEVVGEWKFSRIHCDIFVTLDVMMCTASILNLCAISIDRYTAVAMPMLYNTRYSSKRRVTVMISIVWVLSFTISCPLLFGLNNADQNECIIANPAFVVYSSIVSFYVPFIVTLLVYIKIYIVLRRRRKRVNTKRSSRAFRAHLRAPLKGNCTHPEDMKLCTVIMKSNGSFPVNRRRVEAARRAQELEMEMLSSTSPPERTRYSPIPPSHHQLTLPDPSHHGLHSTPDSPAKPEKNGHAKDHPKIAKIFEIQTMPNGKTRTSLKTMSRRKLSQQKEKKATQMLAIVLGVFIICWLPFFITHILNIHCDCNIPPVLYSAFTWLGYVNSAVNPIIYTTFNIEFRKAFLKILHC
T2 sequence (P35462 whole entry): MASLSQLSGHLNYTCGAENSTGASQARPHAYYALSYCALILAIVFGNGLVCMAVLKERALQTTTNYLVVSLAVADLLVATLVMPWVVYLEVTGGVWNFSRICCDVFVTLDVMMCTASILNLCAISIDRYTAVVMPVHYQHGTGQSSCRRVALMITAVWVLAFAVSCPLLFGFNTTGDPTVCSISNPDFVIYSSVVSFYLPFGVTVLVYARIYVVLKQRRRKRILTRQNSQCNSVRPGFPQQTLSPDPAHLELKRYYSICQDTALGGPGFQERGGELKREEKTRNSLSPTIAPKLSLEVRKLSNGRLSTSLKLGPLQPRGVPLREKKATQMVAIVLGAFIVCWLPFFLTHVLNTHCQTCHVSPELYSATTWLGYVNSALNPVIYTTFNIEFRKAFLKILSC

O/N=C/c1c(CN2CCN(c3ccccc3)CC2)[nH]c2ccccc12
Ki (D(2) dopamine receptor [1]): 8.8 µM
Ki (D(3) dopamine receptor [2]): 3.7 µM
Ki (D(4) dopamine receptor [3]): 0.0005 µM

NS(=O)(=O)c1ccc(N2CCN(CCC3OCCc4ccccc43)CC2)cc1 (centres undefined)
Ki (D(2) dopamine receptor [4]): 5.15 µM
Ki (D(3) dopamine receptor [5]): > 2.78 µM
Ki (D(4) dopamine receptor [6]): 0.0036 µM

CN(C)[C@@H](CNC(=O)NC[C@H]1Cc2ccccc21)CC1CCCCC1
Ki (D(2) dopamine receptor [4]): > 10 µM
Ki (D(3) dopamine receptor [5]): 5.4 µM

Clc1ccc2c(c1)N=C(N1CCN(c3ccccc3)CC1)CCN2
Ki (D(2) dopamine receptor [7]): 4.7 µM
Ki (D(3) dopamine receptor [8]): 3.4 µM
Ki (D(4) dopamine receptor [9]): 0.031 µM

Clc1ccc2c(c1)N=C(N1CCN(CCCCc3ccccc3)CC1)c1ccccc1N2
Activity [10]: 82%

CCOC(=O)N1CCN(Cc2cnn(-c3ccc(Cl)cc3)c2)CC1
Ki (D(4) dopamine receptor [11]): 0.26 µM
Ki (D(2) dopamine receptor [4]): 10.2 µM
Ki (D(4) dopamine receptor [12]): 0.26 µM

Clc1ccc2c(c1)N=C(N1CCN(CCCCc3ccncc3)CC1)c1ccccc1N2
Activity [10]: 78%

CCOC(=O)c1nn(-c2ccccc2)cc1CN(C)[C@@H]1CCSC1
EC50 (D(4) dopamine receptor [13]): 10.8 µM

CC(C)Oc1cccnc1N(C)C1CCN(Cc2ccc(I)cc2)CC1
Ki (D(2) dopamine receptor [14]): 0.568 µM

Oc1cccc(OCCNCC2COCC(c3ccccc3)(c3ccccc3)O2)c1 (centres undefined)
Ki (D(2) dopamine receptor [4]): > 10 µM
Ki (D(3) dopamine receptor [5]): 0.0014 µM

Clc1ccc(OCC2CN(Cc3c[nH]c4ncccc34)CCO2)cc1 (centres undefined)
K (D(2) dopamine receptor [4]): > 1700 nM
Ki (D(3) dopamine receptor [5]): 3.2 µM
Ki (D(4) dopamine receptor [15]): 0.0015 µM

COc1cc(Cl)ccc1OCC1CN(Cc2ccc(Cl)cc2)CCO1 (centres undefined)
Ki (D(4) dopamine receptor [3]): 0.0028 µM

COc1ccccc1OCCNCC1COCC(c2ccccc2)(c2ccccc2)O1 (centres undefined)
Ki (D(2) dopamine receptor [4]): > 10 µM
Ki (D(3) dopamine receptor [5]): 0.013 µM
EC50 (D(4) dopamine receptor [13]): 0.0014 µM

OCc1ccc(N2CCN(Cc3nc4ccccc4[nH]3)CC2)cc1Cl
K [16]: 3.6 nM
Ki (D(2) dopamine receptor [17]): > 5.88 µM

CCOC(=O)c1sc2[nH]cn/c(=N\[C@H]3CCN(CC)C3)c2c1C
Ki (D(2) dopamine receptor [4]): > 10 µM
Ki (D(3) dopamine receptor [5]): > 10 µM

N#Cc1[nH]c2ccccc2c1CN1CCN(c2ccccc2)CC1
Ki (D(2) dopamine receptor [1]): 4.9 µM
Ki (D(3) dopamine receptor [2]): 2.5 µM
Ki (D(4) dopamine receptor [3]): 0.00076 µM

Clc1ccc2c(c1)N=C(N1CCN(CCCOc3ccccc3)CC1)c1ccccc1N2
Activity [10]: 81%

COc1ccccc1N1CCN(Cc2ccc3cccccc2-3)CC1
Ki (D(3) dopamine receptor [18]): 0.082 µM
EC50 (D(4) dopamine receptor [19]): 0.0037 µM
Emax [20]: 54%

CC(C)N1C[C@H](NC(=O)N2Cc3ccccc3[C@@H]2C)[C@@H](C)C1
Ki (D(2) dopamine receptor [4]): > 10 µM
Ki (D(3) dopamine receptor [5]): > 10 µM
Ki (D(4) dopamine receptor [21]): 0.0043 µM
EC50 (D(4) dopamine receptor [13]): 0.00018 µM

OCc1[nH]c2ccccc2c1CN1CCN(c2ccccc2)CC1
Ki (D(2) dopamine receptor [1]): 2.1 µM
Ki (D(3) dopamine receptor [2]): 3.3 µM
Ki (D(4) dopamine receptor [3]): 0.00066 µM

Cc1ncc(CN2CC=C(c3ccccc3)CC2)c(N)n1
Ki (D(2) dopamine receptor [1]): > 1 µM
Ki (D(3) dopamine receptor [2]): > 1 µM
Ki (D(4) dopamine receptor [3]): 0.0052 µM
EC50 (D(4) dopamine receptor [22]): 0.205 µM
Emax [23]: 36%

CCOC(=O)c1[nH]c2ccc(F)cc2c1CN1CCN(c2ccccc2)CC1
Ki (D(2) dopamine receptor [1]): 22 µM
Ki (D(3) dopamine receptor [2]): 15 µM
Ki (D(4) dopamine receptor [3]): 0.0015 µM

CC(=O)O[C@H]1CC(C)(C)C(=C=C/C(C)=C/C=C/C(C)=C/C=C/C=C(C)/C=C/C=C(\C)C(=O)C[C@@]23O[C@]2(C)C[C@@H](O)CC3(C)C)[C@](C)(O)C1
EC50 (D(4) dopamine receptor [13]): 82 µM
EC50 (D(4) dopamine receptor [24]): 16.9 µM

c1ccc(N2CCN(Cc3nc4ccccc4[nH]3)CC2)nc1 [ABT-724]
EC50 (D(2) dopamine receptor [25]): 0.012 µM

COc1cccc(CCC2=NCCN2CCc2ccccc2)c1
Ki (D(2) dopamine receptor [4]): > 10 µM
Ki (D(3) dopamine receptor [5]): > 10 µM

Clc1ccc2c(c1)C(N1CCN(CCc3ccccc3)CC1)=Nc1cccnc1N2
Ki [26]: 0.103 µM
